Data taken from PubChem BioAssay (NCI).
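Compound exposure: 48 hours, 5 concentrations, 96-well plates. Here, GI50 denotes the concentration required for 50% inhibition of growth. TGI: total growth inhibition.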

Key:
Experiment in all cases: inhibition of tumour cell growth, NCI panel, 48 h
[1] = tested on: ACHN renal
[2] = tested on: CAKI-1 renal
[3] = tested on: CCRF-CEM leukemia
[4] = tested on: HS 578T breast
[5] = tested on: IGROV1 ovarian
[6] = tested on: MCF7 breast
[7] = tested on: NCI-H522 lung
[8] = tested on: NCI/ADR-RES ovarian
[9] = tested on: OVCAR-4 ovarian
[10] = tested on: OVCAR-8 ovarian
[11] = tested on: SF-539 CNS
[12] = tested on: SK-MEL-28 melanoma
[13] = tested on: SK-OV-3 ovarian
[14] = tested on: SNB-75 CNS
[15] = tested on: T-47D breast
[16] = tested on: UACC-257 melanoma
[17] = tested on: UACC-62 melanoma
[18] = tested on: 786-0 renal
[19] = tested on: A498 renal
[20] = tested on: A549 NSCLC
[21] = tested on: BT-549 breast
[22] = tested on: COLO 205 colon
[23] = tested on: DU-145 prostate
[24] = tested on: EKVX NSCLC
[25] = tested on: HCC-2998 colon
[26] = tested on: HCT-116 colon
[27] = tested on: HCT-15 colon
[28] = tested on: HL-60(TB) leukemia
[29] = tested on: HOP-62 NSCLC
[30] = tested on: HOP-92 NSCLC
[31] = tested on: HT29 colon
[32] = tested on: KM12 colon
[33] = tested on: LOX IMVI melanoma
[34] = tested on: M14 melanoma
[35] = tested on: MALME-3M melanoma
[36] = tested on: MDA-MB-231 breast
[37] = tested on: MDA-MB-435
[38] = tested on: MOLT-4 leukemia
[39] = tested on: NCI-H226 lung
[40] = tested on: NCI-H23 lung
[41] = tested on: NCI-H460 lung
[42] = tested on: OVCAR-3 ovarian
[43] = tested on: OVCAR-5 ovarian
[44] = tested on: PC-3 prostate
[45] = tested on: RPMI-8226 leukemia
[46] = tested on: RXF 393 renal
[47] = tested on: SF-268 CNS
[48] = tested on: SF-295 CNS
[49] = tested on: SK-MEL-2 melanoma
[50] = tested on: SK-MEL-5 melanoma
[51] = tested on: SN12C renal
[52] = tested on: SNB-19 CNS
[53] = tested on: SW-620 colon
[54] = tested on: TK-10 renal
[55] = tested on: U251 CNS
[56] = tested on: UO-31 renal

Work on `Cc1c2c(cc[n+]1Cc1ccccc1)c1ccc(OCC3CCCCC3)cc1n2CC1CCCCC1` yielded a GI50 [1] of 1240 nM, a TGI [1] of 2530 nM and a GI50 [2] of 1280 nM. It also gave a TGI [2] of 2640 nM, a GI50 [3] of 207 nM and a TGI [3] of 787 nM. The GI50 [4] was 525 nM, the TGI [4] was 4060 nM and the GI50 [5] was 525 nM. For the same molecule, the TGI [5] was 2510 nM, the GI50 [6] was 306 nM and the TGI [6] was 1110 nM. It also gave a GI50 [7] of 261 nM, a TGI [7] of 788 nM and a GI50 [8] of 1750 nM. For the same molecule, the TGI [8] was 4290 nM, the GI50 [9] was 235 nM and the TGI [9] was 735 nM. It also gave a GI50 [10] of 364 nM, a TGI [10] of 1350 nM and a GI50 [11] of 1490 nM. For the same molecule, the TGI [11] was 2880 nM, the GI50 [12] was 590 nM and the TGI [12] was 1880 nM. It also gave a GI50 [13] of 506 nM, a TGI [13] of 1560 nM and a GI50 [14] of 293 nM. It also gave a TGI [14] of 1470 nM, a GI50 [15] of 560 nM and a TGI [15] of 1790 nM. It also gave a GI50 [16] of 299 nM, a TGI [16] of 961 nM and a GI50 [17] of 342 nM. For the same molecule, the TGI [17] was 1280 nM.
Work on `C[C@]12CC[C@H]3[C@@H](C[C@@H]4SC(Nc5cccc(F)c5)=N[C@@]45CC(=O)CC[C@]35C)[C@@H]1CCC2=O` yielded a GI50 [18] of 1430 nM, a TGI [18] of 2830 nM and a GI50 [19] of 2160 nM. It also gave a TGI [19] of 6770 nM, a GI50 [20] of 2580 nM and a TGI [20] of 7500 nM. The GI50 [1] was 1780 nM, the TGI [1] was 3240 nM and the GI50 [21] was 1540 nM. It also gave a TGI [21] of 3610 nM, a GI50 [2] of 1990 nM and a TGI [2] of 5730 nM. The GI50 [3] was 1900 nM, the TGI [3] was greater than 100000 nM and the GI50 [22] was 2160 nM. The TGI [22] was 4810 nM, the GI50 [23] was 1930 nM and the TGI [23] was 4870 nM. For the same molecule, the GI50 [24] was 2500 nM, the TGI [24] was 18500 nM and the GI50 [25] was 3550 nM. It also gave a TGI [25] of 14600 nM, a GI50 [26] of 1590 nM and a TGI [26] of 3240 nM. For the same molecule, the GI50 [27] was 1580 nM, the TGI [27] was 4080 nM and the GI50 [28] was 2730 nM. For the same molecule, the TGI [28] was 8000 nM, the GI50 [29] was 2070 nM and the TGI [29] was 5340 nM. The GI50 [30] was 2250 nM, the TGI [30] was 4170 nM and the GI50 [4] was 3140 nM. It also gave a TGI [4] greater than 100000 nM, a GI50 [31] of 1490 nM and a TGI [31] of 3510 nM. The GI50 [5] was 1890 nM, the TGI [5] was 3830 nM and the GI50 [32] was 3000 nM. The TGI [32] was 12400 nM, the GI50 [33] was 1670 nM and the TGI [33] was 3210 nM. The GI50 [34] was 2360 nM, the TGI [34] was 7230 nM and the GI50 [35] was 1940 nM. It also gave a TGI [35] of 5040 nM, a GI50 [6] of 1370 nM and a TGI [6] of 3280 nM. It also gave a GI50 [36] of 2110 nM, a TGI [36] of 4590 nM and a GI50 [37] of 2740 nM. For the same molecule, the TGI [37] was 13100 nM, the GI50 [38] was 1680 nM and the TGI [38] was 28300 nM. It also gave a GI50 [39] of 2350 nM, a TGI [39] of 5700 nM and a GI50 [40] of 2270 nM. The TGI [40] was 9080 nM, the GI50 [41] was 2520 nM and the TGI [41] was 5580 nM. It also gave a GI50 [7] of 1630 nM, a TGI [7] of 3060 nM and a GI50 [8] of 2810 nM. For the same molecule, the TGI [8] was 17200 nM, the GI50 [42] was 1720 nM and the TGI [42] was 3300 nM. It also gave a GI50 [9] of 2710 nM, a TGI [9] greater than 100000 nM and a GI50 [43] of 2730 nM. The TGI [43] was 18000 nM, the GI50 [10] was 2790 nM and the TGI [10] was 7980 nM. For the same molecule, the GI50 [44] was 1880 nM, the TGI [44] was 3870 nM and the GI50 [45] was 865 nM. It also gave a TGI [45] of 3900 nM, a GI50 [46] of 1450 nM and a TGI [46] of 3250 nM. For the same molecule, the GI50 [47] was 3090 nM, the TGI [47] was 11100 nM and the GI50 [48] was 1190 nM. The TGI [48] was 2970 nM, the GI50 [11] was 1340 nM and the TGI [11] was 2940 nM. The GI50 [49] was 1860 nM, the TGI [49] was 5200 nM and the GI50 [12] was 1520 nM. It also gave a TGI [12] of 4270 nM, a GI50 [50] of 2020 nM and a TGI [50] of 4320 nM. It also gave a GI50 [13] of 2330 nM, a TGI [13] of 6100 nM and a GI50 [51] of 2360 nM. The TGI [51] was 6020 nM, the GI50 [52] was 2330 nM and the TGI [52] was 5690 nM. For the same molecule, the GI50 [14] was 1520 nM, the TGI [14] was 4940 nM and the GI50 [53] was 2330 nM. For the same molecule, the TGI [53] was 4990 nM, the GI50 [15] was 2220 nM and the TGI [15] was 6950 nM. The GI50 [54] was 1970 nM, the TGI [54] was 4150 nM and the GI50 [55] was 1590 nM. For the same molecule, the TGI [55] was 3680 nM, the GI50 [16] was 5470 nM and the TGI [16] was 64500 nM. The GI50 [17] was 1540 nM, the TGI [17] was 3120 nM and the GI50 [56] was 1670 nM. For the same molecule, the TGI [56] was 3590 nM.
